Source: ChEMBL document CHEMBL3045663, “Synthesis and Activity of Novel Acaricidal/Insecticidal 2, 4-Diphenyl-1, 3-oxazolines” (J Pestic Sci, 2002)
Values after ≈ are worked out from the molar mass of the structure shown.

Assays:
Format in all cases: functional
Nephotettix cincticeps = assay: Insecticidal activity against Nephotettix cincticeps (green rice leafhopper) in compound treated rice seedlings assessed as mortality at 500 ppm
Tetranychus urticae = assay: Acaricidal activity against Tetranychus urticae (two-spotted spider mite) in compound treated kidney bean leaf assessed as larvicidal activity
Plutella xylostella = assay: Insecticidal activity against Plutella xylostella (diamondback moth) in compound treated radish leaf assessed as mortality at 500 ppm
Myzus persicae = assay: Insecticidal activity against Myzus persicae (green peach aphid) in compound treated radish leaf assessed as mortality at 500 ppm

SMILES	mortality at 500 ppm (Nephotettix cincticeps) [%]	LC50 (Tetranychus urticae) [µg/mL]	mortality at 500 ppm (Plutella xylostella) [%]	mortality at 500 ppm (Myzus persicae) [%]
CCCCCCCCCCCCCCCc1ccc(C2COC(c3c(F)cccc3F)=N2)cc1 (configuration not stated)	0	0.001 (≈ 0.00213 µM)	85	0
CCCCCCCCCCCCCCOc1ccc(C2COC(c3c(F)cccc3F)=N2)cc1 (configuration not stated)	10	0.01 (≈ 0.0212 µM)	85	60
Cc1ccccc1C1COC(c2c(F)cccc2F)=N1 (configuration not stated)	10	10 (≈ 36.6 µM)	0	0
CCc1ccccc1C1COC(c2c(F)cccc2F)=N1 (configuration not stated)	60	1 (≈ 3.48 µM)	0	0
CCCOc1cc(C(C)C)ccc1C1COC(c2c(F)cccc2F)=N1 (configuration not stated)	100	< 0.001	85	100
CCCCCCCCCc1ccc(C2COC(c3c(F)cccc3F)=N2)c(OC)c1 (configuration not stated)	10	0.001 (≈ 0.00241 µM)	100	100
CC(C)Sc1ccc(C2COC(c3c(F)cccc3F)=N2)cc1 (configuration not stated)	10	0.1 (≈ 0.3 µM)	10	85
CC(C)Cc1ccc(C2COC(c3c(F)cccc3F)=N2)cc1 (configuration not stated)	0	< 0.001	60	100
CCOc1cc(Cl)ccc1C1COC(c2c(F)cccc2F)=N1 (configuration not stated)	100	0.1 (≈ 0.296 µM)	100	100
CCCCOc1ccc(C2COC(c3c(F)cccc3F)=N2)cc1 (configuration not stated)	0	< 0.001	0	100
Fc1cccc(F)c1C1=NC(c2ccccc2Cl)CO1 (configuration not stated)	85	0.1 (≈ 0.34 µM)	35	100
CCOc1cc(C(C)C)ccc1C1COC(c2c(F)cccc2F)=N1 (configuration not stated)	100	0.01 (≈ 0.029 µM)	60	100
Fc1ccccc1C1COC(c2c(F)cccc2F)=N1 (configuration not stated)	35	1 (≈ 3.61 µM)	10	60
CCCCc1ccc(C2COC(c3c(F)cccc3F)=N2)cc1 (configuration not stated)	10	< 0.001	0	100
Cc1cccc(C2COC(c3c(F)cccc3F)=N2)c1 (configuration not stated)	0	10 (≈ 36.6 µM)	0	0
CCCCCCCc1ccc(C2COC(c3c(F)cccc3F)=N2)c(F)c1 (configuration not stated)	0	< 0.001	100	100
Fc1cccc(F)c1C1=NC(c2ccc(OC(F)(F)F)cc2)CO1 (configuration not stated)	35	0.001 (≈ 0.00291 µM)	85	100
C[S+]([O-])c1ccc(C2COC(c3c(F)cccc3F)=N2)cc1 (configuration not stated)	0	10 (≈ 31.1 µM)	60	60
CCCCCCc1ccc(C2COC(c3c(F)cccc3F)=N2)cc1F (configuration not stated)	0	0.1 (≈ 0.277 µM)	0	0
CCCCCCCCOc1ccc(C2COC(c3c(F)cccc3F)=N2)cc1 (configuration not stated)	0	< 0.001	60	85
Fc1cccc(F)c1C1=NC(c2ccc(Cl)cc2Cl)CO1 (configuration not stated)	60	0.01 (≈ 0.0305 µM)	60	100
Cc1ccc(C2COC(c3c(F)cccc3F)=N2)cc1C (configuration not stated)	85	1 (≈ 3.48 µM)	0	100
CCCCCCc1ccc(C2COC(c3c(F)cccc3F)=N2)c(F)c1 (configuration not stated)	60	< 0.001	100	100
Fc1cccc(F)c1C1=NC(c2ccc(C(F)(F)F)cc2)CO1 (configuration not stated)	60	0.01 (≈ 0.0306 µM)	85	100
CCCCCCCCCSc1ccc(C2COC(c3c(F)cccc3F)=N2)cc1 (configuration not stated)	0	0.01 (≈ 0.0239 µM)	85	60
CCCCCCCCCCCCc1ccc(C2COC(c3c(F)cccc3F)=N2)cc1 (configuration not stated)	0	< 0.001	100	85
CCCCCCc1ccc(C2COC(c3c(F)cccc3F)=N2)cc1Cl (configuration not stated)	0	0.1 (≈ 0.265 µM)	0	0
CC(C)Cc1ccc(C2COC(c3c(F)cccc3F)=N2)c(Cl)c1 (configuration not stated)	60	< 0.001	100	100
